Assay results from US9044478B2, “Use of 1,4-bis (3-aminoalkyl) piperazine derivatives in the treatment of neurodegenerative diseases” (INSTITUT NATIONAL DE LA SANTE ET DE LA RECHERCHE MEDICALE, priority 2004, dated 2015).

Experiments:
Aβ1-42 = assay: Aβ 1-42 of the cell supernatant quantified by ELISA (Innotest β-Amyloid1-42); assay type: cell-based, human
Procedure: (§1) The human neuroblastoma cell line SH-SYSY were cultured in Dulbecco's modified Eagle medium supplemented with 10% fetal calf serum, 2 mM L-glutamine, 1 mM non-essential amino-acids, penicillin/streptomycin (Invitrogen SARL, Cergy Pontoise, France) and 200 μg/ml G418 (to select for APP expression) in a 5% CO2 humidified incubator at 37° C. APP751 cDNA with the Swedish mutation (APP^Sw) was subcloned into stably eukaryotic expression vector pcDNA3 (Invitrogen), allowing for a G418 (Invitrogen) selection of stable clones. This APP cDNA was stably transfected into SH-SY5Y cells using the ethyleneimine polymer ExGen 500 (Euromedex) according to the manufacturer's instructions.
(§2) Cells were plated into 6-well plates 24 h before drug exposure. […] After treatment, the medium was collected for the dosage of Aβ1-42. Cells were washed with phosphate-buffered saline and scraped with a policeman rubber in 70 μl of Laemmli sample buffer with protease inhibitors (Complete Mini Roche Molecular Biochemicals, Meylan, France), sonicated and heat-treated for 5 min at 100° C. Protein concentration was established using the PlusOne™ 2-D Quant Kit (Amersham Biosciences, Orsay, France) and samples were kept at −80° C. until used.
The collected medium was spun at 200 g to eliminate the cell debris and Aβ1-42 concentration was determined using the Innotest® β-Amyloid1-42 (Innogenetics, Ghent, Belgium) according to the manufacturer's instructions.
(§3) SKNSH SY5Y transfected cells were grown in the presence of drugs at different concentrations, for example at 1 μM or 5 μM, then cells were harvested and analyzed for their APP-CTF content, using the western-blot approach, while Aβ 1-42 of the cell supernatant Was quantified by ELISA, as described in material and methods. For each compound, normal levels have the arbitrary value of 1. For example, if one APP-CTF is increased 10 times, the value is reported as 10. For Aβ peptide, if decreased of 60%, the value is reported as 0.4 (40% remaining).

APP-CTFs = APP-CTFs content of APPSw-transfected SH-SY5Y cells by western blot; assay type: cell-based, human; set-up: key to β (APP-CTF β stub level, normal level = 1) / α (APP-CTF α stub level, normal level = 1) / γ (APP-CTF γ stub level, normal level = 1) / CTFs (APP-CTFs level, normal level = 1): fold of normal level, normal = 1
Procedure: as §1, §2
The APPCter-C17 antibody is raised against the last 17 amino acids of the human APP sequence (Sergeant, N., David, J. P., Champain, D., Ghestem, A., Wattez, A., and Delacourte, A. (2002) J Neurochem 81, 663-672). This polyclonal antibody detects all APP-CTFs fragments. The tubulin signal was used as a loading control and to normalize the APP-CTFs content. Anti-mouse or anti-rabbit secondary antibodies coupled with horseradish peroxidase were purchased at SIGMA Immunochemicals (Saint Quentin Fallavier, France).
The same quantity of total proteins (20 μg/lane) was loaded on a 16.5% Tris-tricine polyacrylamide gel. Tris-tricine SDS-polyacrylamide gel electrophoresis (PAGE) was performed following the procedure of Schagger and Von Jagow (1987) (Schagger, H., and von Jagow, G. (1987) Anal Biochem 166, 368-379) with a protean II Xi Cell (Bio-Rad, Marnes la coquette, France). Proteins were transferred to nitrocellulose membrane at 2.5 mA/cm^2 per gel using the SemiDry Novablot Transfer system (Amersham Biosciences, Orsay, France), according to the manufacturer's instructions. Proteins were reversibly stained with Ponceau Red to check the quality of the transfer. Membranes were blocked in 25 mM Tris-HCl pH 8.0, 150 mM NaCl, 0.1% Tween-20 (v/v) and 5% (w/v) of skimmed milk for 30 min. Membranes were incubated overnight at 4° C. with appropriate dilutions of the primary antibodies, and incubated for 1 h at room temperature with secondary antibody.
Western blot films were digitized using an UMax scanner calibrated for optical densities (Amersham Biosciences). The Image-MASTER 1D ELITE Software (Amersham Biosciences) was used to quantify the signal, and data were collected using Excel Software (Microsoft, LesUlis, France).
as §3

[1] = system: endothelial cell monolayer; assay: Toxicity on the endothelial cell monolayer of the BBB model; assay type: cell-based; details: concentration of 10 μM
Source text: (§4) The ability of some compounds to cross the Blood-Brain Barrier (BBB) has been evaluated, using an in vitro model (Cecchelli, R., et al., In vitro model for evaluating drug transport across the blood-brain barriers. Adv Drug Deliv Rev, 1999. 36(2-3): p. 165-178). The described model consists in brain capillary endothelial cells co-cultured with glial cells, thereby closely mimicking the in vivo conditions (Lundquist, S, and M. Renftel, The use of in vitro cell culture models for mechanistic studies and as permeability screens for the blood-brain barrier in the pharmaceutical industry-background and current status in the drug discovery process. Vascul Pharmacol 2002. 38(6): p. 355-64) and developed by CELLIAL Technologies SA.
(§5) The transport of drug was good for example 16 and moderate for example 23. Indeed, the permeability coefficients obtained for example 16 (2.26×10^−3 cm/min) and example 23 (1.81×10^−3 cm/min) indicate that these compounds cross the BBB and are good candidates as CNS drugs.

[2] = Solubility in the BBB screening; assay type: physicochemical
Source text: as §5

[3] = system: brain capillary endothelial cells co-cultured with glial cells; assay: In vitro Blood-Brain Barrier model, drug transport; assay type: in vitro ADME; details: for Permeability coefficient: in vitro BBB model
Source text: as §4, §5

[4] = greater concentration (5 μM) at 24 hours
[5] = low concentration (1 μM) at 6 hours
[6] = 24 h, 1 μM as printed (fourth column)

Compound: 1,4-bis{3-[N-n-heptyl)amino]propyl}piperazine [Example 10]
- Decrease of Aβ peptide levels compared to the control (FIG. 1) (Aβ1-42; [4]): efficiency is confirmed
- Decrease of Aβ peptide levels compared to the control (FIG. 1) (Aβ1-42; [5]): efficient to decrease Aβ peptide levels

Compound: Clc1ccc(CNCCCN2CCN(CCCNCc3ccc(Cl)cc3)CC2)cc1 [Example 4]
- Efficiency for Aβ peptide (FIG. 1) (Aβ1-42): particularly high efficiency
- Aβ (Aβ peptide level, normal level = 1; fraction remaining) (Aβ1-42; 6 h, 1 μM): 0.2
- Aβ (Aβ peptide level, normal level = 1; fraction remaining) (Aβ1-42; 6 h, 5 μM): 0
- Aβ (Aβ peptide level, normal level = 1; fraction remaining) (Aβ1-42; 24 h, 1 μM (third column)): 1
- Aβ (Aβ peptide level, normal level = 1; fraction remaining) (Aβ1-42; [6]): 0.1
- Decrease of Aβ peptide levels compared to the control (FIG. 1) (Aβ1-42; [4]): efficiency is confirmed
- Decrease of Aβ peptide levels compared to the control (FIG. 1) (Aβ1-42; [5]): efficient to decrease Aβ peptide levels
- Efficiency for α and γ-APP-CTFs stubs (APP-CTFs): particularly high efficiency
- CTFs (APP-CTFs level, normal level = 1) (APP-CTFs; 6 h, 1 μM): 6
- α (APP-CTF α stub level, normal level = 1) (APP-CTFs; 6 h, 1 μM): 14
- β (APP-CTF β stub level, normal level = 1) (APP-CTFs; 6 h, 1 μM): 0.8
- γ (APP-CTF γ stub level, normal level = 1) (APP-CTFs; 6 h, 1 μM): 9.6
- CTFs (APP-CTFs level, normal level = 1) (APP-CTFs; 6 h, 5 μM): 5
- α (APP-CTF α stub level, normal level = 1) (APP-CTFs; 6 h, 5 μM): 11
- β (APP-CTF β stub level, normal level = 1) (APP-CTFs; 6 h, 5 μM): 1.2
- γ (APP-CTF γ stub level, normal level = 1) (APP-CTFs; 6 h, 5 μM): 5.7
- CTFs (APP-CTFs level, normal level = 1) (APP-CTFs; 24 h, 1 μM (third column)): 3.5
- α (APP-CTF α stub level, normal level = 1) (APP-CTFs; 24 h, 1 μM (third column)): 3.5
- β (APP-CTF β stub level, normal level = 1) (APP-CTFs; 24 h, 1 μM (third column)): 0.8
- γ (APP-CTF γ stub level, normal level = 1) (APP-CTFs; 24 h, 1 μM (third column)): 5.1
- CTFs (APP-CTFs level, normal level = 1) (APP-CTFs; [6]): 65
- α (APP-CTF α stub level, normal level = 1) (APP-CTFs; [6]): 7
- β (APP-CTF β stub level, normal level = 1) (APP-CTFs; [6]): 5
- γ (APP-CTF γ stub level, normal level = 1) (APP-CTFs; [6]): 14.4

Compound: N^4-(3-{4-[3(diisobutylamino)propyl]piperizano}propyl)-benzimidazol-2-amine [Example 16]
- Toxicity on the endothelial cell monolayer [1]: not toxic
- Solubility [2]: soluble
- Transport of drug across the in vitro BBB [3]: good
- Diffusion across the filter membrane coated with collagen and without cells [3]: able to diffuse across the filter membrane
- Permeability coefficient [3]: 37.7 ×10⁻⁶ cm/s

Compound: N^4-[3-(4-{3-[diisobutylamino]propyl}piperizano)propyl]-4-benzyloxyamine [Example 23]
- Toxicity on the endothelial cell monolayer [1]: not toxic
- Solubility [2]: soluble
- Transport of drug across the in vitro BBB [3]: moderate
- Diffusion across the filter membrane coated with collagen and without cells [3]: able to diffuse across the filter membrane
- Permeability coefficient [3]: 30.2 ×10⁻⁶ cm/s
